Results taken from patent US20080076711A1, “Therapeutic agents for osteopenia” (Chugai Seiyaku Kabushiki Kaisha, priority 2001, published 2008).

Key:
[1] = system: OPN knockout (OPN-KO) mice; experiment: Determination of cancellous bone mass (BV/TV) after PTH treatment, OPN-KO mice; format: in vivo, mouse; settings: PTH(+) group, 80 μg/kg s.c., 4 weeks, five days a week, mean ± standard error
Protocol: Sagittal sections were prepared from the metaphyseal region of femur and tomographed using an X-ray microtomograph Musashi (Nittetsu-ELEX, Osaka, Japan). A Luzex-F automated Image analysis system (Nireco, Tokyo, Japan) was then used for analysis of the image data from a 1.47 mm^2 square area (0.7 mm×2.1 mm) located 0.2 mm apart from the growth plate of the distal end of femur to obtain BV/TV values.
BV/TV (bone volume/total tissue volume) denotes the unit bone mass (%), i.e., the percentage of the total trabecular volume in the total tissue volume. Namely, an increase in BV/TV means an increase in calcified bone.
(§1) To create an animal model in which the in vivo effects of OPN were inhibited, strain 129 female mice at 7 weeks of age were modified into knockout mice deficient in the OPN gene (OPN-KO mice), as described in Rittling et al. J. Bone Miner. Res., 13: 1101-1111, 1998. These mice were singly used for PTH treatment test. They were divided into groups of 6 mice each.
(§2) Recombinant human PTH(1-34) (Bachem, Torrance, Calif.) was dissolved in acidified physiological saline supplemented with 0.1% bovine serum albumin (Sigma Chemical Co.-Aldrich, St. Louis, Mo.). The OPN-KO mice were subcutaneously administered with 80 μg/kg of body weight human PTH(1-34) for 4 weeks on a five-days-a-week basis. Mice in the control group were administered with physiological saline alone.

[2] = system: OPN knockout (OPN-KO) mice; experiment: Determination of cortical bone thickness and area after PTH treatment, OPN-KO mice; format: in vivo, mouse; settings: PTH(+) group, 80 μg/kg s.c., 4 weeks, femoral mid-diaphysis
Protocol: Horizontal sections were prepared from the femoral mid-diaphysis and tomographed using an X-ray microtomograph Musashi (Nittetsu-ELEX, Osaka, Japan). A Luzex-F automated image analysis system (Nireco, Tokyo, Japan) was then used for analysis of the image data to determine the thickness and area of cortical bone. The thickness was evaluated at the mean value averaged over 8 measurements every 45°.
as §1, §2

[3] = system: OPN knockout (OPN-KO) mice; experiment: BFR and MAR in cancellous bone (distal end of femur) after PTH treatment, OPN-KO mice; format: in vivo, mouse
Protocol: BFR denotes bone formation rate per unit trabecular area (μm^3/μm^2/day).
MAR denotes the rate of increase in the distance between labeled calcified bands (μm/day).
In the case of cancellous bone, decalcified sagittal sections were prepared from the metaphyseal region and analyzed for BFR and MAR in a 1.4 mm^2 square area located 0.2 mm apart from the growth plate of the distal end of femur. Labeling was accomplished by subcutaneous administration of xylenol orange (100 mg/kg of body weight) 4 days before and calcein 2 days before sampling.
as §1, §2

[4] = system: OPN knockout (OPN-KO) mice; experiment: Determination of TRAP-positive cells (osteoclasts) after PTH treatment, OPN-KO mice; format: in vivo, mouse; settings: PTH(+) group, 80 μg/kg s.c., 4 weeks
Protocol: After treatment with PTH, forefoot bone was excised from each animal. Each bone was rinsed with PBS, fixed for 7 days in 4% paraformaldehyde acid and decalcified for 3 days in 10% EDTA (pH 7.4), followed by dehydration and embedding in paraffin. Serial sections of 7 μm thickness were prepared from paraffin blocks and stained to measure TRAP (tartrate resistant acid phosphatase) activity, with Alcian blue for counter-staining. Among TRAP-positive cells attached to cancellous bone, those having at least three nuclei were counted using 15 serial sections of 7 μm thickness prepared from each bone. Each of the 15 sections was taken at five-section intervals from a total of 75 sections per bone. The number of multinucleated TRAP-positive cells in all 15 sections was summed to give the total number of osteoclasts per unit trabecular perimeter.
as §1
Recombinant human PTH(1-34) (Bachem, Torrance, Calif.) was dissolved in acidified physiological saline supplemented with 0.1% bovine serum albumin (Sigma Chemical Co.-Aldrich, St. Louis, Mo.). […]

[5] = system: wild-type strain 129 female mice; experiment: BFR and MAR in cortical bone (femoral mid-diaphysis) after PTH treatment, wild-type mice; format: in vivo, mouse; settings: WT mice
Protocol: In the case of cortical bone, decalcified horizontal sections (serial sections of 3 μm thickness) were prepared from the femoral mid-diaphysis and analyzed for BFR and MAR in the periosteal and endosteal regions. More specifically, a calcium chelator calcein (4 mg/kg of body weight) was subcutaneously administered 9 days and 2 days before sampling and the interval between two labeled bands was determined under a fluorescence microscope to calculate BFR and MAR. BFR denotes bone formation rate per unit trabecular area (μm^3/μm^2/day). MAR denotes the rate of increase in the distance between labeled calcified bands (μm/day). Recombinant human PTH(1-34) (Bachem, Torrance, Calif.) was dissolved in acidified physiological saline supplemented with 0.1% bovine serum albumin (Sigma Chemical Co.-Aldrich, St. Louis, Mo.). The OPN-KO mice were subcutaneously administered with 80 μg/kg of body weight human PTH(1-34) for 4 weeks on a five-days-a-week basis. Mice in the control group were administered with physiological saline alone. The effect of PTH on bone metabolism was also examined in the same manner as shown in Example 1, using wild-type strain 129 female mice (7 weeks of age). These mice were divided into groups of 6 mice each.

[6] = system: wild-type strain 129 female mice; experiment: Analysis of urinary deoxypyridinoline (Dpyr) after PTH treatment, wild-type mice; format: in vivo, mouse; settings: WT mice
Protocol: At 26 days after treatment with PTH, a 24-hour urine sample was collected from each mouse (10 samples per group). As a marker of bone metabolism, the level of urinary deoxypyridinoline (Dpyr) was measured for each sample using an ELISA kit (Metra Biosystems, San Diego, Calif.) in accordance with the manufacturer's protocol. Recombinant human PTH(1-34) (Bachem, Torrance, Calif.) was dissolved in acidified physiological saline supplemented with 0.1% bovine serum albumin (Sigma Chemical Co.-Aldrich, St. Louis, Mo.). The OPN-KO mice were subcutaneously administered with 80 μg/kg of body weight human PTH(1-34) for 4 weeks on a five-days-a-week basis. Mice in the control group were administered with physiological saline alone. The effect of PTH on bone metabolism was also examined in the same manner as shown in Example 1, using wild-type strain 129 female mice (7 weeks of age). These mice were divided into groups of 6 mice each.

[7] = system: postmenopausal patients with osteoporosis; settings: 100 μg/day once-daily subcutaneous injections for 6 months; cited from earlier work
osteoporosis patients = settings: 21 patients, once-daily subcutaneous injections for 6 to 24 months; cited from earlier work
[8] = OPN-KO mice, PTH(+) group, 80 μg/kg s.c., 4 weeks, distal end of femur
[9] = OPN-KO mice, PTH(+) vs PTH(−) group, p<0.05
[10] = cancellous bone, OPN-KO vs WT mice, p<0.05
[11] = PTH(+) group, 80 μg/kg s.c., 4 weeks
[12] = PTH(+) vs PTH(−) group, significant inhibition of bone formation (p<0.05)

## human PTH(1-34)
[1]
  cancellous bone mass BV/TV: 24.41±2.85%
[2]
  area of cortical bone: 0.88±0.13 mm^2
  thickness of cortical bone: 0.26±0.04 mm
[3]; [8]
  BFR in cancellous bone: 2.68±0.34 μm^3/μm^2/day
  MAR in cancellous bone: 6.21±1.11 μm/day
[3]; [9]
  fold increase in cancellous BFR by PTH treatment: ~2.1 fold
  fold increase in cancellous MAR by PTH treatment: ~1.7 fold
[3]; [10]
  elevation in the magnitude of PTH-induced increase in BFR caused by lack of OPN: ~1.3 fold
  elevation in the magnitude of PTH-induced increase in MAR caused by lack of OPN: about 1.4 fold
[4]
  number of osteoclasts per unit trabecular perimeter of cancellous bone: 7.6±1.0 cells/mm
[5]; [11]
  endosteal BFR, cortical bone: 1.37±0.18 μm^3/μm^2/day
  endosteal MAR, cortical bone: 2.44±0.29 μm/day
  periosteal BFR, cortical bone: 1.07±0.08 μm^3/μ^2/day
  periosteal MAR, cortical bone: 2.05±0.21 μm/day
[5]; PTH(+) vs PTH(−) group, p<0.05
  fold increase in endosteal BFR by PTH treatment: about 1.8 fold
  fold increase in endosteal MAR by PTH treatment: ~1.5 fold
[5]; [12]
  fold increase in periosteal BFR by PTH treatment: ~0.6 fold
  fold increase in periosteal MAR by PTH treatment: ~0.7 fold
[6]; PTH(+) group, 24-hour urine at 26 days
  urinary Dpyr level: 34.86±6.90 nM/mM Cr
[6]; PTH(+) vs PTH(−) group, p<0.05
  fold increase in systemic bone resorption (urinary Dpyr) by PTH treatment: ~1.2 fold
[7]
  calcium balance: restored normal calcium balance
  cancellous bone mass: increased cancellous bone mass
Osteoporosis patients
  calcium balance: no improvement in calcium balance
  cancellous bone mass: increased cancellous bone mass
  cortical bone mass: reduced cortical bone mass
